# Results published in patent US8680113B2, “BMI-1 protein expression modulators” (PTC Therapeutics, Inc., priority 2008, dated 2014).
# Tested on: Bmi-1
# Assay: Sandwich ELISA Assay (Bmi-1 ELISA in HT-1080 cells)
# Type: cell-based, human
# Method in brief: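 Lysate Bmi-1 was quantified against a recombinant GST-Bmi-1 standard (0-8000 pg/mL) by sandwich ELISA read at OD450 with OD570 reference. The ELISA used mouse monoclonal capture, rabbit anti-Bmi-1, HRP anti-rabbit IgG and TMB. Before lysis, HT-1080 cells seeded at 8000/well were exposed to compounds for 40-48 h at 37°C with 0.5% final DMSO.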
row,SMILES,IC50 [nM]
1,"Fc1ccccc1Nc1nccc(-c2cnc3ccccn23)n1 [Cpd 166, N-(2-fluorophenyl)-4-(imidazo[1,2-a]pyridin-3-yl)pyrimidin-2-amine]",< 500
2,"CC(=O)c1ccc(N(C)c2nccc(-c3c(C)nc4ccccn34)n2)cc1 [Cpd 167, 1-(4-{methyl[4-(2-methylimidazo[1,2-a]pyridin-3-yl)pyrimidin-2-yl]amino}phenyl)ethanone]",< 500
3,"Cc1ccc(Nc2nccc(-c3c(C)nc4ncccn34)n2)cc1 [Cpd 168, 4-(2-methylimidazo[1,2-a]pyrimidin-3-yl)-N-(4-methylphenyl)pyrimidin-2-amine]",< 500
4,"Cc1ccc(Nc2nccc(-c3c(C)nc4ccccn34)n2)cc1 [Cpd 169, 4-(2-methylimidazo[1,2-a]pyridin-3-yl)-N-(4-methylphenyl)pyrimidin-2-amine]",< 500
5,"Cc1ccc(N(C)c2nccc(-c3c(C)nc4ncccn34)n2)cc1 [Cpd 170, N-methyl-4-(2-methylimidazo[1,2-a]pyrimidin-3-yl)-N-(4-methylphenyl)pyrimidin-2-amine]",< 500
6,"CCCc1nc2ccccn2c1-c1csc(Nc2ccc(OC)c(F)c2)n1 [Cpd 171, N-(3-fluoro-4-methoxyphenyl)-4-(2-propylimidazo[1,2-a]pyridin-3-yl)-1,3-thiazol-2-amine]",< 500
7,"CCCc1nc2ccccn2c1-c1csc(Nc2ccc(OC)c(Cl)c2)n1 [Cpd 172, N-(3-chloro-4-methoxyphenyl)-4-(2-propylimidazo[1,2-a]pyridin-3-yl)-1,3-thiazol-2-amine]",< 500
8,"CCCc1nc2ccccn2c1-c1csc(Nc2ccc(OCC)cc2)n1 [Cpd 173, N-(4-ethoxyphenyl)-4-(2-propylimidazo[1,2-a]pyridin-3-yl)-1,3-thiazol-2-amine]",< 500
9,"CCCc1nc2ccccn2c1-c1csc(Nc2ccc(I)cc2)n1 [Cpd 174, N-(4-iodophenyl)-4-(2-propylimidazo[1,2-a]pyridin-3-yl)-1,3-thiazol-2-amine]",< 500
10,"CCCc1nc2ccccn2c1-c1csc(Nc2ccc3c(c2)OCO3)n1 [Cpd 175, N-(1,3-benzodioxol-5-yl)-4-(2-propylimidazo[1,2-a]pyridin-3-yl)-1,3-thiazol-2-amine]",< 500
11,"CCCc1nc2ccccn2c1-c1csc(Nc2ccc(N(C)C)cc2)n1 [Cpd 176, N,N-dimethyl-N′-[4-(2-propylimidazo[1,2-a]pyridin-3-yl)-1,3-thiazol-2-yl]benzene-1,4-diamine]",< 500
12,"CCCc1nc2ccccn2c1-c1csc(Nc2ccc(Cl)cc2)n1 [Cpd 178, N-(4-chlorophenyl)-4-(2-propylimidazo[1,2-a]pyridin-3-yl)-1,3-thiazol-2-amine]",< 500
13,"CCCc1nc2ccccn2c1-c1csc(Nc2ccc(Br)cc2)n1 [Cpd 179, N-(4-bromophenyl)-4-(2-propylimidazo[1,2-a]pyridin-3-yl)-1,3-thiazol-2-amine]",< 500
14,"CCCc1nc2ccccn2c1-c1csc(Nc2ccc(OC)cc2)n1 [Cpd 180, N-(4-methoxyphenyl)-4-(2-propylimidazo[1,2-a]pyridin-3-yl)-1,3-thiazol-2-amine]",< 500
15,"CCCc1nc2ncccn2c1-c1csc(Nc2ccc(OC)c(F)c2)n1 [Cpd 181, N-(3-fluoro-4-methoxyphenyl)-4-(2-propylimidazo[1,2-a]pyrimidin-3-yl)-1,3-thiazol-2-amine]",< 500
16,"CCCc1nc2ncccn2c1-c1csc(Nc2ccc3c(c2)OCO3)n1 [Cpd 182, N-(1,3-benzodioxol-5-yl)-4-(2-propylimidazo[1,2-a]pyrimidin-3-yl)-1,3-thiazol-2-amine]",< 500
17,"CCCc1nc2ncccn2c1-c1csc(Nc2ccc(N(C)C)cc2)n1 [Cpd 183, N,N-dimethyl-N′-[4-(2-propylimidazo[1,2-a]pyrimidin-3-yl)-1,3-thiazol-2-yl]benzene-1,4-diamine]",< 500
18,"CCCc1nc2ncccn2c1-c1csc(Nc2ccc(Br)cc2)n1 [Cpd 184, N-(4-bromophenyl)-4-(2-propylimidazo[1,2-a]pyrimidin-3-yl)-1,3-thiazol-2-amine]",< 500
19,"CCCc1nc2ncccn2c1-c1csc(Nc2ccc(I)cc2)n1 [Cpd 185, N-(4-iodophenyl)-4-(2-propylimidazo[1,2-a]pyrimidin-3-yl)-1,3-thiazol-2-amine]",< 500
20,"CCCc1nc2ncccn2c1-c1csc(Nc2ccc(OC)cc2)n1 [Cpd 186, N-(4-methoxyphenyl)-4-(2-propylimidazo[1,2-a]pyrimidin-3-yl)-1,3-thiazol-2-amine]",< 500
21,"CCCc1nc2ncccn2c1-c1csc(Nc2ccccc2)n1 [Cpd 187, N-phenyl-4-(2-propylimidazo[1,2-a]pyrimidin-3-yl)-1,3-thiazol-2-amine]",< 500
22,"COc1cccc(Nc2nc(-c3c(C)nc4ccccn34)cs2)c1 [Cpd 188, N-(3-methoxyphenyl)-4-(2-methylimidazo[1,2-a]pyridin-3-yl)-1,3-thiazol-2-amine]",< 500
23,"Cc1ccc(N(C)c2nccc(-c3c(C)nc4ccccn34)n2)cc1 [Cpd 189, N-methyl-4-(2-methylimidazo[1,2-a]pyridin-3-yl)-N-(4-methylphenyl)pyrimidin-2-amine]",< 500
24,"Cc1nc2ccccn2c1-c1ccnc(Nc2cccc(O)c2)n1 [Cpd 190, 3-{[4-(2-methylimidazo[1,2-a]pyridin-3-yl)pyrimidin-2-yl]amino}phenol]",< 500
25,"FC(F)(F)c1nc2ccccn2c1-c1csc(Nc2ccc3c(c2)OCO3)n1 [Cpd 195, N-(1,3-benzodioxol-5-yl)-4-[2-(trifluoromethyl)imidazo[1,2-a]pyridin-3-yl]-1,3-thiazol-2-amine]",< 500
26,"Cc1nc2ccccn2c1-c1ccnc(Nc2ccc(C(=O)O)cc2)n1 [Cpd 196, 4-{[4-(2-methylimidazo[1,2-a]pyridin-3-yl)pyrimidin-2-yl]amino}benzoic acid]",< 500
27,"Cc1nc2ccccn2c1-c1csc(Nc2ccc(Br)cc2Cl)n1 [Cpd 200, N-(4-bromo-2-chlorophenyl)-4-(2-methylimidazo[1,2-a]pyridin-3-yl)-1,3-thiazol-2-amine]",< 500

# The remaining lines, values ahead:
row,IC50 [nM],SMILES
1,< 500,"Cc1nc2ccc(F)cn2c1-c1csc(Nc2ccc(N(C)C)cc2)n1 [Cpd 157, N′-[4-(6-fluoro-2-methylimidazo[1,2-a]pyridin-3-yl)-1,3-thiazol-2-yl]-N,N-dimethylbenzene-1,4-diamine]"
2,< 500,"Cc1nc2ccc(F)cn2c1-c1csc(Nc2ccc3c(c2)OCO3)n1 [Cpd 158, N-(1,3-benzodioxol-5-yl)-4-(6-fluoro-2-methylimidazo[1,2-a]pyridin-3-yl)-1,3-thiazol-2-amine]"
3,< 500,"CC(=O)c1ccc(Nc2nc(-c3c(C)nc4ccc(F)cn34)cs2)cc1 [Cpd 159, 1-(4-{[4-(6-fluoro-2-methylimidazo[1,2-a]pyridin-3-yl)-1,3-thiazol-2-yl]amino}phenyl)ethanone]"
4,< 500,"COc1ccc(Nc2nc(-c3c(C)nc4ccc(F)cn34)cs2)cc1 [Cpd 160, 4-(6-fluoro-2-methylimidazo[1,2-a]pyridin-3-yl)-N-(4-methoxyphenyl)-1,3-thiazol-2-amine]"
5,< 500,"Cc1nc2ccc(F)cn2c1-c1csc(Nc2ccc(Cl)cc2)n1 [Cpd 161, N-(4-chlorophenyl)-4-(6-fluoro-2-methylimidazo[1,2-a]pyridin-3-yl)-1,3-thiazol-2-amine]"
6,< 500,"Cc1nc2ccc(F)cn2c1-c1csc(Nc2ccc(Br)cc2)n1 [Cpd 162, N-(4-bromophenyl)-4-(6-fluoro-2-methylimidazo[1,2-a]pyridin-3-yl)-1,3-thiazol-2-amine]"
7,< 500,"CCOc1ccc(Nc2nc(-c3c(C)nc4ccc(F)cn34)cs2)cc1 [Cpd 163, N-(4-ethoxyphenyl)-4-(6-fluoro-2-methylimidazo[1,2-a]pyridin-3-yl)-1,3-thiazol-2-amine]"
8,< 500,"Cc1nc2ccc(F)cn2c1-c1csc(Nc2ccc(C(C)(C)C)cc2)n1 [Cpd 164, N-(4-tert-butylphenyl)-4-(6-fluoro-2-methylimidazo[1,2-a]pyridin-3-yl)-1,3-thiazol-2-amine]"
9,< 500,"Cc1nc2ccc(F)cn2c1-c1csc(Nc2ccc(Br)cc2Cl)n1 [Cpd 165, N-(4-bromo-2-chlorophenyl)-4-(6-fluoro-2-methylimidazo[1,2-a]pyridin-3-yl)-1,3-thiazol-2-amine]"
10,< 500,"CCCc1nc2ccccn2c1-c1csc(Nc2ccc(C(C)=O)cc2)n1 [Cpd 177, 1-(4-{[4-(2-propylimidazo[1,2-a]pyridin-3-yl)-1,3-thiazol-2-yl]amino}phenyl)ethanone]"
11,< 500,"Cc1ccc(Nc2nc(-c3c(C)nc4ccccn34)cs2)cc1 [Cpd 191, 4-(2-methylimidazo[1,2-a]pyridin-3-yl)-N-(4-methylphenyl)-1,3-thiazol-2-amine]"
12,< 500,"CCc1ccc(Nc2nc(-c3c(C)nc4ccccn34)cs2)cc1 [Cpd 192, N-(4-ethylphenyl)-4-(2-methylimidazo[1,2-a]pyridin-3-yl)-1,3-thiazol-2-amine]"
13,< 500,"CCN(CC)c1ccc(Nc2nc(-c3c(C)nc4ccccn34)cs2)cc1 [Cpd 193, N,N-diethyl-N′-[4-(2-methylimidazo[1,2-a]pyridin-3-yl)-1,3-thiazol-2-yl]benzene-1,4-diamine]"
14,< 500,"CC(=O)Nc1ccc(Nc2nc(-c3c(C)nc4ccccn34)cs2)cc1 [Cpd 194, N-(4-{[4-(2-methylimidazo[1,2-a]pyridin-3-yl)-1,3-thiazol-2-yl]amino}phenyl)acetamide]"
15,< 500,"Cc1nc2ccccn2c1-c1csc(Nc2ccc(Br)cc2)n1 [Cpd 197, N-(4-bromophenyl)-4-(2-methylimidazo[1,2-a]pyridin-3-yl)-1,3-thiazol-2-amine]"
16,< 500,"Cc1nc2ccccn2c1-c1csc(Nc2ccc(Cl)c(Cl)c2)n1 [Cpd 198, N-(3,4-dichlorophenyl)-4-(2-methylimidazo[1,2-a]pyridin-3-yl)-1,3-thiazol-2-amine]"
17,< 500,"Cc1nc2ccccn2c1-c1csc(Nc2ccc(Cl)cc2)n1 [Cpd 199, N-(4-chlorophenyl)-4-(2-methylimidazo[1,2-a]pyridin-3-yl)-1,3-thiazol-2-amine]"
